The source of these data is patent US8952157B2, “Apoptosis-inducing agents for the treatment of cancer and immune and autoimmune diseases” (AbbVie Inc., priority 2008, dated 2015).

Chain of GST-Bcl-2 (P10415 whole entry): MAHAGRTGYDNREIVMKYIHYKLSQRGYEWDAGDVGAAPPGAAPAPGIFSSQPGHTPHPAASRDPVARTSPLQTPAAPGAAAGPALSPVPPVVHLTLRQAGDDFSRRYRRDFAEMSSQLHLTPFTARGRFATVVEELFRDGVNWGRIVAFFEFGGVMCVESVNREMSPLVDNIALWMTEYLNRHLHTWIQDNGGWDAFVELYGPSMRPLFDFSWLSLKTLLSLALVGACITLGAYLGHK

One assay addresses GST-Bcl-2 (Homo sapiens (Human), UniProt P10415). Nature of the assay: Time Resolved-Fluorescence Resonance Energy Transfer (TR-FRET) Bcl-2 binding assay.
Conditions: not given
In outline: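 Ki values derived from TR-FRET displacement of F-Bak peptide from GST-Bcl-2, detected with Tb-labelled anti-GST antibody (ex 340, em 520/495 nm). Compound dilution series started at 50 μM (2× starting concentration); room-temperature incubation 3 hours.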
As for `CC1(C)CCC(CN2CCN(c3ccc(C(=O)NS(=O)(=O)c4ccc(N[C@H]5CC[C@H](N6CCOCC6)CC5)c([N+](=O)[O-])c4)c(Oc4cc5cc[nH]c5cc4Cl)c3)CC2)=C(c2ccc(Cl)cc2)C1` [Example 293, Trans-2-[(6-chloro-1H-indol-5-yl)oxy]-4-(4-{[2-(4-chlorophenyl)-4,4-dimethylcyclohex-1-en-1-yl]methyl}piperazin-1-yl)-N-({4-[(4-morpholin-4-ylcyclohexyl)amino]-3-nitrophenyl}sulfonyl)benzamide], the Ki (as a rule, a dissociation constant, usually derived from enzyme kinetics or from competition with a known ligand) is 0.233 nM. Molecule `CC1(C)CC(c2ccc(Cl)cc2)=C(CN2CCN(c3ccc(C(=O)NS(=O)(=O)c4ccc(N[C@H]5CC[C@H](N6CCOCC6)CC5)c([N+](=O)[O-])c4)c(Oc4cc5cc[nH]c5cc4Cl)c3)CC2)CO1` [Example 294, Trans-2-[(6-chloro-1H-indol-5-yl)oxy]-4-(4-{[4-(4-chlorophenyl)-6,6-dimethyl-5,6-dihydro-2H-pyran-3-yl]methyl}piperazin-1-yl)-N-({4-[(4-morpholin-4-ylcyclohexyl)amino]-3-nitrophenyl}sulfonyl)benzamide] yielded a Ki of 0.127 nM.

Still in this assay, the particulars now being: GST-Bcl-2 1 nM, F-Bak peptide probe 100 nM, Tb-anti-GST antibody 1 nM; Ki by Wang's equation.
For the molecule `CC1(C)CCC(CN2CCN(c3ccc(C(=O)NS(=O)(=O)c4ccc(NCC5CCOCC5)c([N+](=O)[O-])c4)c(Oc4ccnc(N)c4)c3)CC2)=C(c2ccc(Cl)cc2)C1` [Example 282, 2-[(2-aminopyridin-4-yl)oxy]-4-(4-{[2-(4-chlorophenyl)-4,4-dimethylcyclohex-1-en-1-yl]methyl}piperazin-1-yl)-N-({3-nitro-4-[(tetrahydro-2H-pyran-4-ylmethyl)amino]phenyl}sulfonyl)benzamide], the Ki came out at 1.01 nM.

In turn, `CC1(C)CCC(CN2CCN(c3ccc(C(=O)NS(=O)(=O)c4ccc(NCC5CCOCC5)c([N+](=O)[O-])c4)c(Oc4ccc(O)nc4)c3)CC2)=C(c2ccc(Cl)cc2)C1` [Example 283, 4-(4-{[2-(4-chlorophenyl)-4,4-dimethylcyclohex-1-en-1-yl]methyl}piperazin-1-yl)-2-[(6-hydroxypyridin-3-yl)oxy]-N-({3-nitro-4-[(tetrahydro-2H-pyran-4-ylmethyl)amino]phenyl}sulfonyl)benzamide] came in with a Ki of 17.2 nM. On the same count and under the same terms, as for `CC1(C)CCC(CN2CCN(c3ccc(C(=O)NS(=O)(=O)c4ccc(NCC5CCOCC5)c([N+](=O)[O-])c4)c(Oc4ccc(OCc5ccccc5)nc4)c3)CC2)=C(c2ccc(Cl)cc2)C1` [Example 284, 2-{[6-(benzyloxy)pyridin-3-yl]oxy}-4-(4-{[2-(4-chlorophenyl)-4,4-dimethylcyclohex-1-en-1-yl]methyl}piperazin-1-yl)-N-({3-nitro-4-[(tetrahydro-2H-pyran-4-ylmethyl)amino]phenyl}sulfonyl)benzamide], the figure is 79.3 nM. As to `CC1(C)CCC(CN2CCN(c3ccc(C(=O)NS(=O)(=O)c4ccc(OCC5COCCO5)c([N+](=O)[O-])c4)c(Oc4cc5cc[nH]c5cc4F)c3)CC2)=C(c2ccc(Cl)cc2)C1` (stereo not shown) [Example 285, 4-(4-{[2-(4-chlorophenyl)-4,4-dimethylcyclohex-1-en-1-yl]methyl}piperazin-1-yl)-N-{[4-(1,4-dioxan-2-ylmethoxy)-3-nitrophenyl]sulfonyl}-2-[(6-fluoro-1H-indol-5-yl)oxy]benzamide], the Ki is 0.037 nM. The same measure, in the same setting: for `CN1CCN(Nc2ccc(S(=O)(=O)NC(=O)c3ccc(N4CCN(CC5=C(c6ccc(Cl)cc6)CC(C)(C)CC5)CC4)cc3Oc3cccc4c3CC(=O)N4)cc2[N+](=O)[O-])CC1` [Example 287, 4-(4-{[2-(4-chlorophenyl)-4,4-dimethylcyclohex-1-en-1-yl]methyl}piperazin-1-yl)-N-({4-[(4-methylpiperazin-1-yl)amino]-3-nitrophenyl}sulfonyl)-2-[(2-oxo-2,3-dihydro-1H-indol-4-yl)oxy]benzamide] the value was 0.131 nM; for `CN1CCC(Nc2ccc(S(=O)(=O)NC(=O)c3ccc(N4CCN(CC5=C(c6ccc(Cl)cc6)CC(C)(C)CC5)CC4)cc3Oc3cccc4c3CC(=O)N4)cc2[N+](=O)[O-])CC1` [Example 288, 4-(4-{[2-(4-chlorophenyl)-4,4-dimethylcyclohex-1-en-1-yl]methyl}piperazin-1-yl)-N-({4-[(1-methylpiperidin-4-yl)amino]-3-nitrophenyl}sulfonyl)-2-[(2-oxo-2,3-dihydro-1H-indol-4-yl)oxy]benzamide], 0.017 nM. Same read-out and setting: for `CC1(C)CCC(CN2CCN(c3ccc(C(=O)NS(=O)(=O)c4ccc(NC5CCN(C6CCOCC6)CC5)c([N+](=O)[O-])c4)c(Oc4cccc5c4CC(=O)N5)c3)CC2)=C(c2ccc(Cl)cc2)C1` [Example 289, 4-(4-{[2-(4-chlorophenyl)-4,4-dimethylcyclohex-1-en-1-yl]methyl}piperazin-1-yl)-N-({3-nitro-4-[(1-tetrahydro-2H-pyran-4-ylpiperidin-4-yl)amino]phenyl}sulfonyl)-2-[(2-oxo-2,3-dihydro-1H-indol-4-yl)oxy]benzamide] the value was < 0.01 nM; for `CC1(C)CCC(CN2CCN(c3ccc(C(=O)NS(=O)(=O)c4ccc(OCC5COCCO5)c([N+](=O)[O-])c4)c(Oc4cc5cc[nH]c5cc4Cl)c3)CC2)=C(c2ccc(Cl)cc2)C1` (stereo not shown) [Example 290, 2-[(6-chloro-1H-indol-5-yl)oxy]-4-(4-{[2-(4-chlorophenyl)-4,4-dimethylcyclohex-1-en-1-yl]methyl}piperazin-1-yl)-N-{[4-(1,4-dioxan-2-ylmethoxy)-3-nitrophenyl]sulfonyl}benzamide], 0.251 nM. Same read-out and setting: for `CC1(C)CCC(CN2CCN(c3ccc(C(=O)NS(=O)(=O)c4ccc(NCC5COCCO5)c([N+](=O)[O-])c4)c(Oc4cc5cc[nH]c5cc4Cl)c3)CC2)=C(c2ccc(Cl)cc2)C1` (stereo not shown) [Example 291, 2-[(6-chloro-1H-indol-5-yl)oxy]-4-(4-{[2-(4-chlorophenyl)-4,4-dimethylcyclohex-1-en-1-yl]methyl}piperazin-1-yl)-N-({4-[(1,4-dioxan-2-ylmethyl)amino]-3-nitrophenyl}sulfonyl)benzamide] the value was 0.273 nM; for `CC1(C)CCC(CN2CCN(c3ccc(C(=O)NS(=O)(=O)c4ccc(NCC5COCCO5)c([N+](=O)[O-])c4)c(Oc4cc5cc[nH]c5cc4F)c3)CC2)=C(c2ccc(Cl)cc2)C1` (stereo not shown) [Example 292, 4-(4-{[2-(4-chlorophenyl)-4,4-dimethylcyclohex-1-en-1-yl]methyl}piperazin-1-yl)-N-({4-[(1,4-dioxan-2-ylmethyl)amino]-3-nitrophenyl}sulfonyl)-2-[(6-fluoro-1H-indol-5-yl)oxy]benzamide], 0.191 nM; for `CC1(C)CC(c2ccc(Cl)cc2)=C(CN2CCN(c3ccc(C(=O)NS(=O)(=O)c4ccc(NC5CCC(N6CCOCC6)CC5)c([N+](=O)[O-])c4)c(Oc4cc5cc[nH]c5cc4F)c3)CC2)CO1` (stereo not shown) [Example 295, 4-(4-{[4-(4-chlorophenyl)-6,6-dimethyl-5,6-dihydro-2H-pyran-3-yl]methyl}piperazin-1-yl)-2-[(6-fluoro-1H-indol-5-yl)oxy]-N-({4-[(4-morpholin-4-ylcyclohexyl)amino]-3-nitrophenyl}sulfonyl)benzamide], 0.077 nM. As for `CC1(C)CCC(CN2CCN(c3ccc(C(=O)NS(=O)(=O)c4ccc(OCC5(F)CCOCC5)c([N+](=O)[O-])c4)c(Oc4cc5cc[nH]c5cc4F)c3)CC2)=C(c2ccc(Cl)cc2)C1` [Example 296, 4-(4-{[2-(4-chlorophenyl)-4,4-dimethylcyclohex-1-en-1-yl]methyl}piperazin-1-yl)-2-[(6-fluoro-1H-indol-5-yl)oxy]-N-({4-[(4-fluorotetrahydro-2H-pyran-4-yl)methoxy]-3-nitrophenyl}sulfonyl)benzamide], the Ki is < 0.01 nM.

In turn, `CC1(C)CC(c2ccc(Cl)cc2)=C(CN2CCN(c3ccc(C(=O)NS(=O)(=O)c4cnc(OCC5CCOCC5)c(C#N)c4)c(Oc4cc5cc[nH]c5cc4F)c3)CC2)CO1` [Example 298, 4-(4-{[4-(4-chlorophenyl)-6,6-dimethyl-5,6-dihydro-2H-pyran-3-yl]methyl}piperazin-1-yl)-N-{[5-cyano-6-(tetrahydro-2H-pyran-4-ylmethoxy)pyridin-3-yl]sulfonyl}-2-[(6-fluoro-1H-indol-5-yl)oxy]benzamide] gave a Ki of 0.054 nM. This lies in the picomolar range. Still for that read-out and setting: for `CC1(C)CCC(CN2CCN(c3ccc(C(=O)NS(=O)(=O)c4ccc(NCC5CCOCC5)c([N+](=O)[O-])c4)c(Oc4ccc5[nH]cc(CCN)c5c4)c3)CC2)=C(c2ccc(Cl)cc2)C1` [Example 299, 2-{[3-(2-aminoethyl)-1H-indol-5-yl]oxy}-4-(4-{[2-(4-chlorophenyl)-4,4-dimethylcyclohex-1-en-1-yl]methyl}piperazin-1-yl)-N-({3-nitro-4-[(tetrahydro-2H-pyran-4-ylmethyl)amino]phenyl}sulfonyl)benzamide] the value was 51.7 nM; for `CN1CCN(Nc2ccc(S(=O)(=O)NC(=O)c3ccc(N4CCN(CC5=C(c6ccc(Cl)cc6)CC(C)(C)CC5)CC4)cc3Oc3ccc4[nH]cc(CCN)c4c3)cc2[N+](=O)[O-])CC1` [Example 300, 2-{[3-(2-aminoethyl)-1H-indol-5-yl]oxy}-4-(4-{[2-(4-chlorophenyl)-4,4-dimethylcyclohex-1-en-1-yl]methyl}piperazin-1-yl)-N-({4-[(4-methylpiperazin-1-yl)amino]-3-nitrophenyl}sulfonyl)benzamide], 13.7 nM; for `CC1(C)CCC(CN2CCN(c3ccc(C(=O)NS(=O)(=O)c4cnc(OCC5CCOCC5)c(C#N)c4)c(Oc4cc5cc[nH]c5cc4F)c3)CC2)=C(c2ccc(Cl)cc2)C1` [Example 301, 4-(4-{[2-(4-chlorophenyl)-4,4-dimethylcyclohex-1-en-1-yl]methyl}piperazin-1-yl)-N-{[5-cyano-6-(tetrahydro-2H-pyran-4-ylmethoxy)pyridin-3-yl]sulfonyl}-2-[(6-fluoro-1H-indol-5-yl)oxy]benzamide], 0.113 nM. On the same count and under the same terms, as for `CC1(C)CCC(CN2CCN(c3ccc(C(=O)NS(=O)(=O)c4ccc(NCC5CCOCC5)c([N+](=O)[O-])c4)c(Oc4cnc(N)c(F)c4)c3)CC2)=C(c2ccc(Cl)cc2)C1` [Example 302, 2-[(6-amino-5-fluoropyridin-3-yl)oxy]-4-(4-{[2-(4-chlorophenyl)-4,4-dimethylcyclohex-1-en-1-yl]methyl}piperazin-1-yl)-N-({3-nitro-4-[(tetrahydro-2H-pyran-4-ylmethyl)amino]phenyl}sulfonyl)benzamide], the figure is < 0.01 nM.
